Test results from ChEMBL document CHEMBL4507256 (2021).

Columns and labels:
[1] = target: Calcium/calmodulin-dependent protein kinase type IV (Homo sapiens) (UniProt Q16566); conditions: Compound concentration 1000.0 nM
[2] = target: Mitogen-activated protein kinase kinase kinase 13 (Homo sapiens) (UniProt O43283); conditions: Compound concentration 1000.0 nM
[3] = target: Receptor-type tyrosine-protein kinase FLT3 (Homo sapiens) (UniProt P36888); conditions: Compound concentration 1000.0 nM
[4] = target: Serine/threonine-protein kinase LATS2 (Homo sapiens) (UniProt Q9NRM7); conditions: Compound concentration 1000.0 nM
[5] = target: Phosphorylase b kinase gamma catalytic chain, skeletal muscle/heart isoform (Homo sapiens) (UniProt Q16816); conditions: Compound concentration 1000.0 nM
[6] = target: Protein kinase C iota type (Homo sapiens) (UniProt P41743); conditions: Compound concentration 1000.0 nM
[7] = target: Serine/threonine-protein kinase PLK4 (Homo sapiens) (UniProt O00444); conditions: Compound concentration 1000.0 nM
[8] = target: D(1A) dopamine receptor (Homo sapiens) (UniProt P21728); conditions: Compound concentration 10.0 uM
[9] = target: Ribosomal protein S6 kinase alpha-6 (Homo sapiens) (UniProt Q9UK32); conditions: Compound concentration 1000.0 nM
[10] = target: Histamine H1 receptor (Homo sapiens) (UniProt P35367); conditions: Compound concentration 10.0 uM
[11] = target: Mitogen-activated protein kinase 11 (Homo sapiens) (UniProt Q15759); conditions: Compound concentration 1000.0 nM
[12] = target: Mitogen-activated protein kinase kinase kinase kinase 5 (Homo sapiens) (UniProt Q9Y4K4); conditions: Compound concentration 1000.0 nM
[13] = target: Discoidin domain-containing receptor 2 (Homo sapiens) (UniProt Q16832); conditions: Compound concentration 1000.0 nM
[14] = target: Serine/threonine-protein kinase 36 (Homo sapiens) (UniProt Q9NRP7); conditions: Compound concentration 1000.0 nM
Chain of Serine/threonine-protein kinase 36 (Homo sapiens) (Q9NRP7 whole entry): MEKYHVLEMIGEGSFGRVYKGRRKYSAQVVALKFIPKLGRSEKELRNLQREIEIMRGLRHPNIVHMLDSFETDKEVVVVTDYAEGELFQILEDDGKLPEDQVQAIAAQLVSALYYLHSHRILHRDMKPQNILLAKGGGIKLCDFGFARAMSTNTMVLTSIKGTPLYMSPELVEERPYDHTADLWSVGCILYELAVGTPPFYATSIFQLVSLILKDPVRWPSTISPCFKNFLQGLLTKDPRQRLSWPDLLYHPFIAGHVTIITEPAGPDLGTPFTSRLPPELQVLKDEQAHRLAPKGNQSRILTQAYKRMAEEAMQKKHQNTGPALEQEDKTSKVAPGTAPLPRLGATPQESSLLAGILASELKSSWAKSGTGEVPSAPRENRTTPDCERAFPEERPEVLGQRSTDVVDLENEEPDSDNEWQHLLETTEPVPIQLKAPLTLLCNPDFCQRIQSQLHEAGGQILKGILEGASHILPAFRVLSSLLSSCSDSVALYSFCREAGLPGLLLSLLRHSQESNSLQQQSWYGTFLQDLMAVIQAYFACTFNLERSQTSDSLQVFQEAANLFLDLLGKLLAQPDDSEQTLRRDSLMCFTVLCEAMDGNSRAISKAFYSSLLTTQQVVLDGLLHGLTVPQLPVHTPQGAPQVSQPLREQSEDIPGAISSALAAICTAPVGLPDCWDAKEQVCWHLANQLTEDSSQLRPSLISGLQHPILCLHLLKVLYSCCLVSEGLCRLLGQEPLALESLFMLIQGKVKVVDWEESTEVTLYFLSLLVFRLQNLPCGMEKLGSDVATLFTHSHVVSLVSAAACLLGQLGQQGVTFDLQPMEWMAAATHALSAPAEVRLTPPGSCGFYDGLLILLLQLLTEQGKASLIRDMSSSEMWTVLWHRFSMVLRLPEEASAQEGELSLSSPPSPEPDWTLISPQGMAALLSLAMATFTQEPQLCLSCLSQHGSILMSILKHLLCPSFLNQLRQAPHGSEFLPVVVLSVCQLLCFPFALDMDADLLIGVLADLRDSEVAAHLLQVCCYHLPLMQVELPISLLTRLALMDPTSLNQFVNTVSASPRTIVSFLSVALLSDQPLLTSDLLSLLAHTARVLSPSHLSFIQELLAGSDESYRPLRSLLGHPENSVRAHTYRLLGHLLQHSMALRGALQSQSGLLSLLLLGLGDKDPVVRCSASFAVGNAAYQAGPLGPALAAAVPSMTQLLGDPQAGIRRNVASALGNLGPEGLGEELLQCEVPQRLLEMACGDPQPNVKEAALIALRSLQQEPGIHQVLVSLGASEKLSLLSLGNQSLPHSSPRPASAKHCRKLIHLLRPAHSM

[15] = target: T1, Muscarinic acetylcholine receptor M5 (Homo sapiens) (UniProt P08912); conditions: Compound concentration 10.0 uM
T1 sequence (whole entry): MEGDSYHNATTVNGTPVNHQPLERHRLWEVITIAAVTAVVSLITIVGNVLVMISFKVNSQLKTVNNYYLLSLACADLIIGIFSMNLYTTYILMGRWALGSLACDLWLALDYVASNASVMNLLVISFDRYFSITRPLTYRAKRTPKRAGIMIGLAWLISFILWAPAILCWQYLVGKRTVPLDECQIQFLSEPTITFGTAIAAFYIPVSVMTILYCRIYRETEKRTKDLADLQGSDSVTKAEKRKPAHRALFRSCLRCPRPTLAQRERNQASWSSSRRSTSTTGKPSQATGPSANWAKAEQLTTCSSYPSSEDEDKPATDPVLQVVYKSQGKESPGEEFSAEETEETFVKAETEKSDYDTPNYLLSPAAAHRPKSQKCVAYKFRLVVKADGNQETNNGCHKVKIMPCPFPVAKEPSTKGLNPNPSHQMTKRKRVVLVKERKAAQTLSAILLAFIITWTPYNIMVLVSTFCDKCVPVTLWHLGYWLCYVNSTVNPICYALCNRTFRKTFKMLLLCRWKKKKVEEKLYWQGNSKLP

[16] = tested on: Proto-oncogene tyrosine-protein kinase receptor Ret (Homo sapiens), P07949 [M918T]; conditions: Compound concentration 1000.0 nM
[17] = target: Sodium-dependent noradrenaline transporter (Homo sapiens) (UniProt P23975); conditions: Compound concentration 10.0 uM
Chain of Sodium-dependent noradrenaline transporter (Homo sapiens) (P23975 whole entry): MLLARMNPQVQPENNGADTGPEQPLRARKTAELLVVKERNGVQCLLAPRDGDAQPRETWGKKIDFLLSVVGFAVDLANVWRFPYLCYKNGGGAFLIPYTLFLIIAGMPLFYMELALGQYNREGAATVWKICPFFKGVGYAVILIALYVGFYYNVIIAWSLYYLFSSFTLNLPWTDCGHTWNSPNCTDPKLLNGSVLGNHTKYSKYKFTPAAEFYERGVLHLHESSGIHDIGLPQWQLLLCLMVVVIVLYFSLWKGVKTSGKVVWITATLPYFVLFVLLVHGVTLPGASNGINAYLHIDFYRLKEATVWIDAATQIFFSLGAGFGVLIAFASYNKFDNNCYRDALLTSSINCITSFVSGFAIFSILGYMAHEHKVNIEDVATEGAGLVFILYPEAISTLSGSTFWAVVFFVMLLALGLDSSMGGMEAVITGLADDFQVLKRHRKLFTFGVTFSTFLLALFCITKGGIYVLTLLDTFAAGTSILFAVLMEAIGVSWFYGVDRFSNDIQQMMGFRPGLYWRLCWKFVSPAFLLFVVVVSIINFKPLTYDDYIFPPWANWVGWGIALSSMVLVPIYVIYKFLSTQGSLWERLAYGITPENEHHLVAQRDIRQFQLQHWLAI

[18] = target: Cyclin-dependent kinase 7 (Homo sapiens) (UniProt P50613); conditions: Compound concentration 1000.0 nM
Chain of Cyclin-dependent kinase 7 (Homo sapiens) (P50613 whole entry): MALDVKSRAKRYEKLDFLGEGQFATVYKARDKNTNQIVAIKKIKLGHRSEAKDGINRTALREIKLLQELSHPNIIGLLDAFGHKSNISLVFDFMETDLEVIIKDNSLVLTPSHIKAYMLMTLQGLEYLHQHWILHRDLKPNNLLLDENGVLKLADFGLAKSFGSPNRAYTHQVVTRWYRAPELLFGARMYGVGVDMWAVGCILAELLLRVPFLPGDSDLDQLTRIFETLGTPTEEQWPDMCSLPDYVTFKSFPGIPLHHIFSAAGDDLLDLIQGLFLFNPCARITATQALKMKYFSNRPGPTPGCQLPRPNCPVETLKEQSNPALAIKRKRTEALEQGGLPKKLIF

[19] = target: Serine/threonine-protein kinase ULK1 (Homo sapiens) (UniProt O75385); conditions: Compound concentration 1000.0 nM
[20] = target: Mitogen-activated protein kinase kinase kinase 11 (Homo sapiens) (UniProt Q16584); conditions: Compound concentration 1000.0 nM
[21] = target: Serine/threonine-protein kinase TAO2 (Homo sapiens) (UniProt Q9UL54); conditions: Compound concentration 1000.0 nM
[22] = target: Casein kinase II subunit alpha' (Homo sapiens) (UniProt P19784); conditions: Compound concentration 1000.0 nM
[23] = target: RAC-beta serine/threonine-protein kinase (Homo sapiens) (UniProt P31751); conditions: Compound concentration 1000.0 nM
[24] = target: LIM domain kinase 2 (Homo sapiens) (UniProt P53671); conditions: Compound concentration 1000.0 nM
[25] = target: 1-phosphatidylinositol 3-phosphate 5-kinase (Homo sapiens) (UniProt Q9Y2I7); conditions: Compound concentration 1000.0 nM
[26] = tested on: Mast/stem cell growth factor receptor Kit (Homo sapiens), P10721 [L576P]; conditions: Compound concentration 1000.0 nM
Chain of Mast/stem cell growth factor receptor Kit (Homo sapiens), P10721 [L576P] (P10721 whole entry L576P, canonical isoform): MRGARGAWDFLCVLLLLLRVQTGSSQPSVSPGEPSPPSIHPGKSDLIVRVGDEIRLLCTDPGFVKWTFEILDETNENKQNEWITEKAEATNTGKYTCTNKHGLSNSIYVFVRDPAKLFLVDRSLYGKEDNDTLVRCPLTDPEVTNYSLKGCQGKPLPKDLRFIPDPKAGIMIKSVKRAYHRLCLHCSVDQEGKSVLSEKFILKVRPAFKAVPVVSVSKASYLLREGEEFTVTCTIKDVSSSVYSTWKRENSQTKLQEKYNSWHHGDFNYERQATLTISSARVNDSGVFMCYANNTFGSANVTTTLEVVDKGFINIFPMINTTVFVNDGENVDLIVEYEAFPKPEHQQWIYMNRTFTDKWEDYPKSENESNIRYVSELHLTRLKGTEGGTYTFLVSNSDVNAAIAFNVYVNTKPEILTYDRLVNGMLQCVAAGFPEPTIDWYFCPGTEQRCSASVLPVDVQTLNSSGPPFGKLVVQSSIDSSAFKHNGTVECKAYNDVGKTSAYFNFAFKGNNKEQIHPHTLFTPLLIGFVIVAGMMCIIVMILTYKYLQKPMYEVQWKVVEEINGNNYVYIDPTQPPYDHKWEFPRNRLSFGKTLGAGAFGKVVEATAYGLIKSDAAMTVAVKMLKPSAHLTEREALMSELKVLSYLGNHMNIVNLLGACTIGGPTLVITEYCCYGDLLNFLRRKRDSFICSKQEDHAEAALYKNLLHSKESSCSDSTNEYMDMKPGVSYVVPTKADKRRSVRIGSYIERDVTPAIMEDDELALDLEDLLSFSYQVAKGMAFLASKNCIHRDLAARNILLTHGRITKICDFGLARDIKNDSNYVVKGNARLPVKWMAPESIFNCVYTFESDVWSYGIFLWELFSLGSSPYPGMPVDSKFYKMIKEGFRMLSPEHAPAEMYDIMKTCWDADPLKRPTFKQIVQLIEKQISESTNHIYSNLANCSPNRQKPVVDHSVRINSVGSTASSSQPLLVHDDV

[27] = tested on: Phosphatidylinositol 4,5-bisphosphate 3-kinase catalytic subunit alpha isoform (Homo sapiens), P42336 [I800L]; conditions: Compound concentration 1000.0 nM
[28] = target: Serine/threonine-protein kinase PLK2 (Homo sapiens) (UniProt Q9NYY3); conditions: Compound concentration 1000.0 nM
[29] = target: cAMP-dependent protein kinase catalytic subunit alpha (Homo sapiens) (UniProt P17612); conditions: Compound concentration 1000.0 nM
[30] = target: Aurora kinase C (Homo sapiens) (UniProt Q9UQB9); conditions: Compound concentration 1000.0 nM
[31] = target: Tyrosine-protein kinase JAK2 (Homo sapiens) (UniProt O60674); conditions: Compound concentration 1000.0 nM
[32] = target: Ephrin type-A receptor 8 (Homo sapiens) (UniProt P29322); conditions: Compound concentration 1000.0 nM
[33] = target: MAP kinase-interacting serine/threonine-protein kinase 2 (Homo sapiens) (UniProt Q9HBH9); conditions: Compound concentration 1000.0 nM
[34] = target: Cyclin-dependent kinase 16 (Homo sapiens) (UniProt Q00536); conditions: Compound concentration 1000.0 nM
[35] = target: Phosphatidylinositol 4,5-bisphosphate 3-kinase catalytic subunit beta isoform (Homo sapiens) (UniProt P42338); conditions: Compound concentration 1000.0 nM
Chain of Phosphatidylinositol 4,5-bisphosphate 3-kinase catalytic subunit beta isoform (Homo sapiens) (P42338 whole entry, looked up, canonical isoform): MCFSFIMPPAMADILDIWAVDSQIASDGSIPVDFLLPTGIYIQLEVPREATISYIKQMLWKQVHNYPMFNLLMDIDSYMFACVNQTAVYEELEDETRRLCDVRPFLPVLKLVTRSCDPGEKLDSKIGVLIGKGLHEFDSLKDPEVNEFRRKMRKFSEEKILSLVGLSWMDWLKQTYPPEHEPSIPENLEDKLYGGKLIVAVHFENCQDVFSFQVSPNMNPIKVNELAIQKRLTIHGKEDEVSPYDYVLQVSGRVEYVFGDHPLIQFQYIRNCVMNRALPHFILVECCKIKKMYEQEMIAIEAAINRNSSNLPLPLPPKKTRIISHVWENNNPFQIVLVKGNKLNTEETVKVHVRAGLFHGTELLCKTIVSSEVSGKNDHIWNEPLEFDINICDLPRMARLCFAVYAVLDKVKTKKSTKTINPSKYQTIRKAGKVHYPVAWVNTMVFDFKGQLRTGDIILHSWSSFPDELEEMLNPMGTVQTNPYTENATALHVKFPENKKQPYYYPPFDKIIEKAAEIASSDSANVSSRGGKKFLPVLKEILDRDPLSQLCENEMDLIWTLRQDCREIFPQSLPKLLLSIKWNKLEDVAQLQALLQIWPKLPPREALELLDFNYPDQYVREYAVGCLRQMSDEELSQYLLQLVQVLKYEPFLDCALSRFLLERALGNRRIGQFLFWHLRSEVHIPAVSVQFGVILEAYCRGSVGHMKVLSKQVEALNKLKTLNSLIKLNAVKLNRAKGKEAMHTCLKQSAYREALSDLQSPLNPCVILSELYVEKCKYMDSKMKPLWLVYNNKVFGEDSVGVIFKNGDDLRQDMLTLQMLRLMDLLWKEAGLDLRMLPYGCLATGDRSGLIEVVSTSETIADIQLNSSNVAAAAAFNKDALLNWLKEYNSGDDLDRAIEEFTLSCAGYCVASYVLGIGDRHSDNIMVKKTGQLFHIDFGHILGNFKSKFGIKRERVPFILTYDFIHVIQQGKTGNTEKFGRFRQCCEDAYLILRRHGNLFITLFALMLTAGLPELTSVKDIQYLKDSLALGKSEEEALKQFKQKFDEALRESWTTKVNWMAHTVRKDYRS

[36] = target: Serine/threonine-protein kinase Nek9 (Homo sapiens) (UniProt Q8TD19); conditions: Compound concentration 1000.0 nM
[37] = target: Ribosomal protein S6 kinase alpha-4 (Homo sapiens) (UniProt O75676); conditions: Compound concentration 1000.0 nM
Chain of Ribosomal protein S6 kinase alpha-4 (Homo sapiens) (O75676 whole entry, looked up): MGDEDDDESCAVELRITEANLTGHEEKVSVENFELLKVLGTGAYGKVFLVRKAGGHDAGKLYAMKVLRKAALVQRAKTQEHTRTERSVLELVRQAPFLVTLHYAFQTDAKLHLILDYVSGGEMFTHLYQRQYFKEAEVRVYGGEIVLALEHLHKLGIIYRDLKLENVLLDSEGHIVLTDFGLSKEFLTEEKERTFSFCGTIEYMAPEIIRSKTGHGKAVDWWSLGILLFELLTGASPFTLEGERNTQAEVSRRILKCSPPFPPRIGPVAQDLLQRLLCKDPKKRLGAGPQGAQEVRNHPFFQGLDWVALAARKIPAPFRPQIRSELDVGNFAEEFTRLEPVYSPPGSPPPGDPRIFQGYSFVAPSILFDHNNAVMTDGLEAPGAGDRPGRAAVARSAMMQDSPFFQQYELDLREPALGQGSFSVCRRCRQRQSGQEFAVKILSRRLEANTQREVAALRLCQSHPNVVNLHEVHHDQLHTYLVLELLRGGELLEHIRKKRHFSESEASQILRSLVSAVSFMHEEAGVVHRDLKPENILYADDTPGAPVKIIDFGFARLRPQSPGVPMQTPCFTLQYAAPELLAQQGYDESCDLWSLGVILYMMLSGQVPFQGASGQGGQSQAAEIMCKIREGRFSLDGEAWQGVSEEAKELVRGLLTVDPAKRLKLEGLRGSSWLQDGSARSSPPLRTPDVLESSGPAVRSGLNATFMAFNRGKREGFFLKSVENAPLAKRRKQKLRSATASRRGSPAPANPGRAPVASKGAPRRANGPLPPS

[38] = target: Atypical kinase COQ8B, mitochondrial (Homo sapiens) (UniProt Q96D53); conditions: Compound concentration 1000.0 nM

SMILES	residual activity [1] [%]	residual activity [2] [%]	residual activity [3] [%]	residual activity [4] [%]	residual activity [5] [%]	residual activity [6] [%]	residual activity [7] [%]	inhibition [8] [%]	residual activity [9] [%]	inhibition [10] [%]	residual activity [11] [%]	residual activity [12] [%]	residual activity [13] [%]	residual activity [14] [%]	inhibition [15] [%]	residual activity [16] [%]	inhibition [17] [%]	residual activity [18] [%]	residual activity [19] [%]	residual activity [20] [%]	other results
CCC(=N\O)/C(C)=C/c1ccc(F)cc1 [A-079]	69	96	86	100	100	74	75	13.4	94	9.24	82	80	91	84	6.68	100	-2.32	60	85	88	residual activity [21]: 94%; residual activity [22]: 100%; residual activity [23]: 88%; residual activity [24]: 80%; residual activity [25]: 92%; residual activity [26]: 100%; residual activity [27]: 100%; residual activity [28]: 78%; residual activity [29]: 78%; residual activity [30]: 80%; residual activity [31]: 71%; residual activity [32]: 100%; residual activity [33]: 100%; residual activity [34]: 86%; residual activity [35]: 99%; residual activity [36]: 79%; residual activity [37]: 81%; residual activity [38]: 84%
CCC(=N\O)/C(C)=C/c1ccc(F)c(C)c1 [A-226]	87	23	100	75	100	99	100	-0.91	98	15.2	82	100	100	100	2.77	92	-0.42	93	96	79	residual activity [21]: 100%; residual activity [22]: 73%; residual activity [23]: 84%; residual activity [24]: 90%; residual activity [25]: 100%; residual activity [26]: 94%; residual activity [27]: 100%; residual activity [28]: 100%; residual activity [29]: 100%; residual activity [30]: 100%; residual activity [31]: 100%; residual activity [32]: 99%; residual activity [33]: 100%; residual activity [34]: 100%; residual activity [35]: 100%; residual activity [36]: 100%; residual activity [37]: 91%; residual activity [38]: 83%
